Laboratory results as given in US20030158403A1, “Nuclease resistant chimeric oligonucleotides” (ISIS Pharmaceuticals, Inc., priority 2001, published 2003).
In the oligonucleotide strings, read from the 5' end, every base follows the letter of its sugar. An asterisk marks phosphorothioate; unmarked linkages are phosphodiester. Other units and linkages are bracketed, terminal groups are in braces. A string of capitals states the bases alone. [L-DNA] = L-2'-deoxythymidine (L-thymidine); d = 2'-deoxy (DNA)

Experiments:
Target RNA = test: Tm values of L-thymidine modified oligonucleotides against RNA; type: binding
[1] = In vivo nuclease stability of L/D-oligonucleotide chimera, IV bolus, organs analyzed by CGE; conditions: 24 h after IV bolus, BalbC mouse
Description: Here we report the in vivo nuclease stability of L/D-oligonucleotide chimera in mouse. We synthesized the phosphoramidite and CPG derived from L-thymidine, which was synthesized from a novel route [Jung, E. M.; Xu, Y. Tetrahedron Lett. 1997, 24, 4199-4202]. A 20 mer phosphorothioate oligonucleotide ISIS-120745 (antisense to mouse ICAM-1) was capped with L-2′-deoxy thymidine at 3′and 5′-positions. The oligonucleotide was then administered IV bolus into BalbC mouse. After 24 h. mouse was sacrificed and the oligonucleotide was isolated from different organs. Percentage of full-length oligonucleotide present in different organs were analyzed by CGE.

With “ISIS 5132: 5′ TCCCGCTGTGATGCATT 3′ (SEQ ID NO: 6), all P = S; unmodified counterpart of 121785 (dT*dC*dC*dC*dG*dC*dT*dG*dT*dG*dA*dT*dG*dC*dA*dT*dT)” the “Tm, Target RNA” value (Target RNA) was 60.6 °C.
With “ISIS 8651: TGCATCCCCCAGGCCACCAT (SEQ ID NO: 4), all P = S; unmodified counterpart of 120745 (dT*dG*dC*dA*dT*dC*dC*dC*dC*dC*dA*dG*dG*dC*dC*dA*dC*dC*dA*dT)” the degradation in organs [1] was “degraded completely” and the “Tm, Target RNA” value (Target RNA) was 68.7 °C.
For “ISIS 120745: 5′ T*GC ATC CCC CAG GCC ACC AT*3′; T* = L-Thymidine, all P = S; antisense to mouse ICAM-1 (antisense TGCATCCCCCAGGCCACCAT; sugars from the 5' end [L-DNA]1 d18 [L-DNA]1, all phosphorothioate, methylation of C not given here)”, the “intact full-length oligonucleotide isolated from all the major organs” value [1] was over 90%, the “Tm, Target RNA” value (Target RNA) was 66.94 °C and the ΔTm (Target RNA; relative to the unmodified parent oligonucleotide) was −1.76 °C.
